PubChem BioAssay AID248 (DTP/NCI, 2004)
Toxic doses and inconclusive results are not listed. Rule as the data show it: active = T/C of 150% or more; inactive = T/C below 125%.

System: L1210 leukemia ip in BDF1 mice, survival T/C
Assay: NCI In Vivo Anticancer Drug Screen. Data for tumor model L1210 Leukemia (intraperitoneal) in B6D2F1 (BDF1) mice
Conditions: endpoint: mean survival time, higher = longer survival
How it was run: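 Ratio derived from survival: compound-dosed mice over vehicle-dosed mice, all bearing a transplantable tumor.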

[1] = dose: 100.0 mg/kg/injection, schedule: Q04DX003 (ip), vehicle: saline with Tween-80
[2] = dose: 200.0 mg/kg/injection, schedule: Q04DX003 (ip), vehicle: saline with Tween-80
[3] = dose: 400.0 mg/kg/injection, schedule: Q04DX003 (ip), vehicle: saline with Tween-80
[4] = dose: 25.0 mg/kg/injection, schedule: Q01DX009 (ip), vehicle: saline with Tween-80
[5] = dose: 50.0 mg/kg/injection, schedule: Q01DX009 (ip), vehicle: saline with Tween-80
[6] = dose: 100.0 mg/kg/injection, schedule: Q01DX001 (ip), vehicle: saline
[7] = dose: 200.0 mg/kg/injection, schedule: Q01DX001 (ip), vehicle: saline
[8] = dose: 400.0 mg/kg/injection, schedule: Q01DX001 (ip), vehicle: saline
[9] = dose: 100.0 mg/kg/injection, schedule: Q04DX003 (ip), vehicle: Klucel (hydroxypropylcellulose) (HPC)
[10] = dose: 200.0 mg/kg/injection, schedule: Q04DX003 (ip), vehicle: Klucel (hydroxypropylcellulose) (HPC)
[11] = dose: 50.0 mg/kg/injection, schedule: Q01DX001 (ip), vehicle: saline

Measured: T/C

Cc1ccc(OCC(O)CN2CCN(c3ccc(Cl)cc3)CC2)cc1 (configuration not stated)
inactive: dose: 63.0 mg/kg/injection, schedule: Q01DX015 (ip), vehicle: carboxymethylcellulose (CMC) 95 % of control | [1] 91 % of control | dose: 125.0 mg/kg/injection, schedule: Q01DX015 (ip), vehicle: carboxymethylcellulose (CMC) 95 % of control | [2] 94 % of control | dose: 250.0 mg/kg/injection, schedule: Q01DX015 (ip), vehicle: carboxymethylcellulose (CMC) 95 % of control | [3] 89 % of control | dose: 500.0 mg/kg/injection, schedule: Q01DX015 (ip), vehicle: carboxymethylcellulose (CMC) 91 % of control | dose: 1000.0 mg/kg/injection, schedule: Q01DX015 (ip), vehicle: carboxymethylcellulose (CMC) 95 % of control

O=C1NC(=O)C(c2cccs2)(c2cccs2)N1
inactive: dose: 25.0 mg/kg/injection, schedule: Q01DX009 (ip), vehicle: water 98 % of control | dose: 50.0 mg/kg/injection, schedule: Q01DX009 (ip), vehicle: water 102 % of control | dose: 100.0 mg/kg/injection, schedule: Q01DX009 (ip), vehicle: water 98 % of control | dose: 100.0 mg/kg/injection, schedule: Q04DX003 (ip), vehicle: water 106 % of control | dose: 200.0 mg/kg/injection, schedule: Q01DX009 (ip), vehicle: water 91 % of control | dose: 200.0 mg/kg/injection, schedule: Q04DX003 (ip), vehicle: water 112 % of control | dose: 300.0 mg/kg/injection, schedule: Q01DX009 (ip), vehicle: water 90 % of control

Cc1ccc(S(=O)(=O)OCC2OCC(OC(=O)c3ccccc3)C(OC(=O)c3ccccc3)C2OC(=O)c2ccccc2)cc1 (configuration not stated)
inactive: [1] 93 % of control | [2] 93 % of control | [3] 90 % of control

CC(C)(C)c1ccc(N)cc1Br
inactive: dose: 12.5 mg/kg/injection, schedule: Q01DX009 (ip), vehicle: saline with Tween-80 95 % of control | [4] 93 % of control | [5] 97 % of control | [1] 92 % of control | [2] 96 % of control

C[N+](C)(C)Cc1ccc([N+](=O)[O-])cc1
inactive: dose: 2.2 mg/kg/injection, schedule: Q01DX001 (ip), vehicle: saline 101 % of control | dose: 3.3 mg/kg/injection, schedule: Q01DX001 (ip), vehicle: saline 97 % of control | dose: 5.0 mg/kg/injection, schedule: Q01DX001 (ip), vehicle: saline 94 % of control | dose: 7.5 mg/kg/injection, schedule: Q01DX001 (ip), vehicle: saline 101 % of control

O=[N+]([O-])c1ccc(Oc2c(Cl)c(Cl)c(Cl)c(Cl)c2Cl)c([N+](=O)[O-])c1
inactive: dose: 222.0 mg/kg/injection, schedule: Q01DX Z (ip), vehicle: methylcellulose (MC) 95 % of control | dose: 333.0 mg/kg/injection, schedule: Q01DX Z (ip), vehicle: methylcellulose (MC) 94 % of control | dose: 500.0 mg/kg/injection, schedule: Q01DX Z (ip), vehicle: methylcellulose (MC) 93 % of control

CCN(CC)C(=O)Nc1cccc([N+](=O)[O-])c1
inactive: dose: 100.0 mg/kg/injection, schedule: Q04DX002 (ip), vehicle: Klucel (hydroxypropylcellulose) (HPC) 104 % of control | dose: 200.0 mg/kg/injection, schedule: Q04DX002 (ip), vehicle: Klucel (hydroxypropylcellulose) (HPC) 97 % of control | dose: 400.0 mg/kg/injection, schedule: Q04DX002 (ip), vehicle: Klucel (hydroxypropylcellulose) (HPC) 101 % of control

OC1C2CC3C1C3C2c1ccccc1 (configuration not stated)
inactive: dose: 100.0 mg/kg/injection, schedule: Q01DX009 (ip), vehicle: Klucel (hydroxypropylcellulose) (HPC) 102 % of control | dose: 200.0 mg/kg/injection, schedule: Q01DX009 (ip), vehicle: Klucel (hydroxypropylcellulose) (HPC) 91 % of control

CCS(=O)(=O)C1CCC1OC(C)(C)C (configuration not stated)
inactive: [6] 108 % of control | [7] 108 % of control | [8] 102 % of control

CC(C)C(CN)(CCCN1CCCCC1)c1cccc2ccccc12 (configuration not stated)
inactive: [1] 101 % of control

CCCCC[Si](C)(C)C
inactive: [6] 103 % of control | [7] 97 % of control | [8] 105 % of control

CCCCNC(C)(C)C(SSS(=O)(=O)O)c1ccc(Cl)cc1 (configuration not stated)
inactive: dose: 100.0 mg/kg/injection, schedule: Q01DX009 (ip), vehicle: saline with Tween-80 96 % of control | dose: 200.0 mg/kg/injection, schedule: Q01DX009 (ip), vehicle: saline with Tween-80 103 % of control | dose: 400.0 mg/kg/injection, schedule: Q01DX009 (ip), vehicle: saline with Tween-80 92 % of control

O=C(C=C(C(F)(F)F)C(F)(F)F)c1ccc(-c2ccccc2)cc1
inactive: [4] 98 % of control | [5] 98 % of control | dose: 50.0 mg/kg/injection, schedule: Q04DX003 (ip), vehicle: saline with Tween-80 92 % of control | [1] 87 % of control | [2] 86 % of control

O=[N+]([O-])c1cc(CCl)ccc1CCl
inactive: dose: 50.0 mg/kg/injection, schedule: Q04DX003 (ip), vehicle: Klucel (hydroxypropylcellulose) (HPC) 86 % of control | [9] 92 % of control | [10] 98 % of control

CC(=O)/C(C1=NCCC1)=C(/C)O
inactive: dose: 100.0 mg/kg/injection, schedule: Q04DX003 (ip), vehicle: saline 92 % of control | dose: 200.0 mg/kg/injection, schedule: Q04DX003 (ip), vehicle: saline 98 % of control | dose: 400.0 mg/kg/injection, schedule: Q04DX003 (ip), vehicle: saline 98 % of control

COc1ccccc1N1C(=O)CC(Sc2ccccc2N)C1=O (configuration not stated)
inactive: dose: 100.0 mg/kg/injection, schedule: Q01DX009 (ip), vehicle: saline sonified 95 % of control | dose: 100.0 mg/kg/injection, schedule: Q04DX003 (ip), vehicle: saline sonified 87 % of control | dose: 200.0 mg/kg/injection, schedule: Q01DX009 (ip), vehicle: saline sonified 88 % of control | dose: 200.0 mg/kg/injection, schedule: Q04DX003 (ip), vehicle: saline sonified 94 % of control | dose: 400.0 mg/kg/injection, schedule: Q01DX009 (ip), vehicle: saline sonified 93 % of control | dose: 400.0 mg/kg/injection, schedule: Q04DX003 (ip), vehicle: saline sonified 96 % of control

O=C1c2ccccc2C(=O)c2cc(S(=O)(=O)O)ccc21
inactive: [1] 95 % of control | [2] 95 % of control | [3] 95 % of control

C1COC(CNCC2CCCO2)C1 (configuration not stated)
inactive: [11] 109 % of control | [6] 101 % of control | [7] 103 % of control

CC1Cc2cccc3ccc(=O)n(c23)C1 (configuration not stated)
inactive: dose: 100.0 mg/kg/injection, schedule: Q01DX001 (ip), vehicle: carboxymethylcellulose (CMC) 91 % of control | dose: 200.0 mg/kg/injection, schedule: Q01DX001 (ip), vehicle: carboxymethylcellulose (CMC) 100 % of control | dose: 400.0 mg/kg/injection, schedule: Q01DX001 (ip), vehicle: carboxymethylcellulose (CMC) 98 % of control

CCOC(=O)Cc1cnc(SC)nc1N
inactive: [9] 95 % of control | [10] 94 % of control | dose: 400.0 mg/kg/injection, schedule: Q04DX003 (ip), vehicle: Klucel (hydroxypropylcellulose) (HPC) 87 % of control

CCC1CN1C(=O)c1ccc(OP(=O)(N2CC2CC)N2CC2CC)cc1 (configuration not stated)
inactive: [11] 102 % of control | [6] 102 % of control | [7] 105 % of control | [8] 102 % of control

CCOC(=O)/C(=C/c1ccc(OC)cc1)P(=O)(OCC)OCC
inactive: [11] 91 % of control | [6] 91 % of control | [7] 103 % of control | [8] 95 % of control
